Source: PMC8180025, “Antibacterial, antifungal and antioxidant activities of whole plant chemical constituents of Rumex abyssinicus” (BMC Complementary Medicine and Therapies, 2021)
Converted amounts (≈) assume the structure as drawn. “And” between values parts separate entries of the source, which are not always exact repeats. Identical values can stand only once. Marks after values point to notes of the source that are not given here.

Experiments:
[1] = DPPH free radical scavenging assay; type: biochemical; conditions: mean ± SD, triplicate
Experimental: The free radical scavenging activity of extracts and compounds was evaluated according to described methods. The EC50 (μg/ml), which is the amount of sample necessary to inhibit by 50% the absorbance of free radical DPPH was calculated. Vitamin C was used as a standard control. All the analyses were carried out in triplicate.

[2] = Gallic acid equivalent antioxidant capacity (GEAC) assay; type: biochemical; conditions: laccase/ABTS, 420 nm after 240 s; mean ± SD
Experimental: The GEAC test was done as previously described with slight modifications. In a quartz cuvette, to 950 μL acetate buffer (pH =5.0, 100 mM), the following were added: 20 μL laccase (1 mM stock solution), 20 μL test sample, 10 μL ABTS (2,2′-azinobis(3-ethylbenzothiazoline-6-sulfonic acid) (74 mM stock solution). The purification of laccase from Sclerotinia sclerotiorum was done according to the protocol described. The sample concentrations in the assay mixture were 800, 400, 200, 100, 10 μg/mL for the extracts and 200, 100, 50, 25, 12.5, 6.25, 3.125, 1.56 μg/mL for the isolated compounds. The content of the generated ABTS^●+ radical was measured at 420 nm after 240 s reaction time and was converted to gallic acid equivalents by the use of a calibration curve (Pearson’s correlation coefficient: r = 0.997) constructed with 0, 4, 10, 14, 28, 56, 84 μM gallic acid standards rather than Trolox. Experiments were done in triplicate.

[3] = test system: Pseudomonas aeruginosa ATCC27853; test: Broth microdilution MIC/MMC; conditions: for MMC/MIC / MMC: P. aeruginosa; for MMC: sub-culturing after broth microdilution; for MIC: Pseudomonas aeruginosa, ATCC27853
[4] = test system: Shigella flexneri SDINT; test: Broth microdilution MIC/MMC; conditions: for MMC/MIC / MMC: S. flexneri; for MMC: sub-culturing after broth microdilution; for MIC: Shigella flexneri
[5] = test system: Staphylococcus aureus ATCC25923; test: Broth microdilution MIC/MMC; conditions: for MMC/MIC / MMC: S. aureus; for MMC: sub-culturing after broth microdilution; for MIC: Staphylococcus aureus, ATCC25923
[6] = test system: methicillin sensitive S. aureus MSSA01; test: Broth microdilution MIC/MMC; conditions: for MMC/MIC / MMC: MSSA01; for MMC: sub-culturing after broth microdilution; for MIC: Staphylococcus aureus
[7] = test system: methicillin resistant S. aureus MRSA03; test: Broth microdilution MIC/MMC; conditions: for MMC/MIC / MMC: MRSA03; for MMC: sub-culturing after broth microdilution; for MIC: Staphylococcus aureus
[8] = test system: Candida albicans ATCC10231; test: Broth microdilution MIC/MMC; conditions: for MMC/MIC / MMC: C. albicans; for MMC: sub-culturing after broth microdilution; for MIC: Candida albicans, ATCC10231
[9] = test system: Cryptococcus neoformans H99; test: Broth microdilution MIC/MMC; conditions: for MMC/MIC / MMC: C. neoformans; for MMC: sub-culturing after broth microdilution; for MIC: Cryptococcus neoformans, H99
[10] = test system: P. aeruginosa; test: Checkerboard combination with antibiotic (FIC); type: cell-based, Pseudomonas aeruginosa; conditions: combined with ciprofloxacin
[11] = test system: S. flexneri; test: Checkerboard combination with antibiotic (FIC); type: cell-based, Shigella flexneri; conditions: combined with ciprofloxacin
Experimental: (§1) The inoculum was initially prepared as described above. The test microorganisms were inoculated into a 96-well microtitre plates and a serial dilution of two antimicrobial agents: antibiotic and MeOH extract, compound 2 or 4. Each well consisted of unique combination of test sample and antibiotic concentrations. The plates were then incubated for 24 h at 37 °C. The analyses were performed in triplicates. And the antimicrobial agents interactions were evaluated by calculating the fractional inhibitory concentration (FIC) indices. The FIC is defined as follows: MIC of antibiotic tested in combination/MIC of antibiotic tested alone + MIC of extract/compound tested in combination/MIC of extract/compound tested alone. The FIC index is interpreted as FIC ≤ 0.5: synergistic effect, 0.5 < FIC ≤1: additive effect, 1 < FIC ≤2: indifferent effect, and FIC > 2.0: antagonistic effect.

[12] = test system: S. aureus; test: Checkerboard combination with antibiotic (FIC); type: cell-based, Staphylococcus aureus; conditions: combined with ciprofloxacin
[13] = test system: MSSA01; test: Checkerboard combination with antibiotic (FIC); type: cell-based, Staphylococcus aureus; conditions: combined with ciprofloxacin
[14] = test system: MRSA03; test: Checkerboard combination with antibiotic (FIC); type: cell-based, Staphylococcus aureus; conditions: combined with ciprofloxacin
[15] = test system: C. albicans; test: Checkerboard combination with antibiotic (FIC); type: cell-based, Candida albicans; conditions: combined with fluconazole, checkerboard
[16] = test system: C. neoformans; test: Checkerboard combination with antibiotic (FIC); type: cell-based, Cryptococcus neoformans; conditions: combined with fluconazole, checkerboard
[17] = test system: bacterial and yeast species; test: Checkerboard combination with antibiotics, whole panel; type: cell-based; conditions: overall statement over the microorganisms tested
Experimental: as §1

## Cc1cc(O)c2c(c1)C(=O)c1cccc(O)c1C2=O [Compound 1, Chrysophanol]
[1]
  DPPH free radical scavenging activity (EC50): 4.52 ± 0.36^d μg/mL
[2]
  Gallic acid equivalent antioxidant capacity (GEAC): 104.87 ± 1.43^d μg/mL
[3]
  MMC/MIC: 2
  MMC: 128 µg/mL
  MIC: 64 µg/mL (≈ 252 µM)
[4]
  MMC/MIC: 1
  MMC: 32 µg/mL
  MIC: 32 µg/mL (≈ 126 µM)
[5]
  MMC/MIC: 2
  MMC: 64 µg/mL
  MIC: 32 µg/mL (≈ 126 µM)
[6]
  MMC/MIC: 1
  MMC: 64 µg/mL
  MIC: 64 µg/mL (≈ 252 µM)
[7]
  MMC/MIC: 2
  MMC: 128 µg/mL
  MIC: 64 µg/mL (≈ 252 µM)
[8]
  MMC/MIC: 1
  MMC: 64 µg/mL
  MIC: 64 µg/mL (≈ 252 µM)
[9]
  MMC/MIC: 1
  MMC: 32 µg/mL
  MIC: 32 µg/mL (≈ 126 µM)

## O=C1c2cc(O)cc(O)c2C(=O)c2c(O)cc(CO)cc21 [Compound 5, 6-hydroxyemodin (Citreorosein)]
[1]
  DPPH free radical scavenging activity (EC50): 9.88 ± 0.62^f μg/mL
[2]
  Gallic acid equivalent antioxidant capacity (GEAC): 81.09 ± 0.93 μg/mL and 81.09 ± 0.93^e μg/mL
[3]
  MMC/MIC: 2
  MMC: 64 µg/mL
  MIC: 32 µg/mL (≈ 112 µM)
[4]
  MMC/MIC: 1
  MMC: 32 µg/mL
  MIC: 32 µg/mL (≈ 112 µM)
[5]
  MMC/MIC: 1
  MMC: 32 µg/mL
  MIC: 32 µg/mL (≈ 112 µM)
[6]
  MMC/MIC: 2
  MMC: 256 µg/mL
  MIC: 128 µg/mL (≈ 447 µM)
[7]
  MMC/MIC: 2
  MMC: 256 µg/mL
  MIC: 128 µg/mL (≈ 447 µM)
[8]
  MMC/MIC: 2
  MMC: 32 µg/mL
  MIC: 16 µg/mL (≈ 55.9 µM)
[9]
  MMC/MIC: 2
  MMC: 32 µg/mL
  MIC: 16 µg/mL (≈ 55.9 µM)

## OC(Cn1cncn1)(Cn1cncn1)c1ccc(F)cc1F [fluconazole, reference compound]
[8]
  MMC/MIC: 1
  MMC: 1 µg/mL
  MIC: 1 µg/mL (≈ 3.27 µM)
[9]
  MMC/MIC: 1
  MMC: 2 µg/mL
  MIC: 2 µg/mL (≈ 6.53 µM)

## Cc1cc(O)c2c(c1)C(=O)c1cc(O)cc(O)c1C2=O [Compound 4, Emodin]
[10]
  Interpretation (of FIC index): Synergistic (FIC ≤ 0.5: synergistic effect)
[10]; checkerboard
  FICEx / FIC2 / FIC5 (MIC of extract/compound tested in combination/MIC of extract/compound tested alone): 0.125
[11]
  Interpretation (of FIC index): Synergistic (FIC ≤ 0.5: synergistic effect)
[11]; checkerboard
  FIC (fractional inhibitory concentration index): 0.31
  FICEx / FIC2 / FIC5 (MIC of extract/compound tested in combination/MIC of extract/compound tested alone): 0.25
[11]; checkerboard, 24 h at 37 °C
  FICA (MIC of antibiotic tested in combination/MIC of antibiotic tested alone): 0.0625
[12]
  Interpretation (of FIC index): Additive (0.5 < FIC ≤1: additive effect)
[12]; checkerboard
  FIC (fractional inhibitory concentration index): 0.625
  FICEx / FIC2 / FIC5 (MIC of extract/compound tested in combination/MIC of extract/compound tested alone): 0.125
[12]; checkerboard, 24 h at 37 °C
  FICA (MIC of antibiotic tested in combination/MIC of antibiotic tested alone): 0.5
[13]
  FIC (fractional inhibitory concentration index): 0.5
  FICEx / FIC2 / FIC5 (MIC of extract/compound tested in combination/MIC of extract/compound tested alone): 0.25
[13]; 24 h at 37 °C
  FICA (MIC of antibiotic tested in combination/MIC of antibiotic tested alone): 0.25
[14]
  FIC (fractional inhibitory concentration index): 0.375
  FICEx / FIC2 / FIC5 (MIC of extract/compound tested in combination/MIC of extract/compound tested alone): 0.125
[14]; 24 h at 37 °C
  FICA (MIC of antibiotic tested in combination/MIC of antibiotic tested alone): 0.25
[15]
  FIC (fractional inhibitory concentration index): 0.75
  FICEx / FIC2 / FIC5 (MIC of extract/compound tested in combination/MIC of extract/compound tested alone): 0.5
[15]; 24 h at 37 °C
  FICA (MIC of antibiotic tested in combination/MIC of antibiotic tested alone): 0.25
[16]
  FIC (fractional inhibitory concentration index): 0.75
  FICEx / FIC2 / FIC5 (MIC of extract/compound tested in combination/MIC of extract/compound tested alone): 0.5
[16]; 24 h at 37 °C
  FICA (MIC of antibiotic tested in combination/MIC of antibiotic tested alone): 0.25
[1]
  DPPH free radical scavenging activity (EC50): 10.69 ± 0.51^f μg/mL
[2]
  Gallic acid equivalent antioxidant capacity (GEAC): 79.54 ± 1.26 μg/mL and 79.54 ± 1.26^e μg/mL
[17]
  effect of the association with ciprofloxacin (bacteria) / fluconazole (yeasts): synergistic
[3]
  MMC/MIC: 1
  MMC: 16 µg/mL
  MIC: 16 µg/mL (≈ 59.2 µM)
[4]
  MMC/MIC: 2
  MMC: 16 µg/mL
  MIC: 8 µg/mL (≈ 29.6 µM)
[5]
  MMC/MIC: 1
  MMC: 8 µg/mL
  MIC: 8 µg/mL (≈ 29.6 µM)
[6]
  MMC/MIC: 1
  MMC: 32 µg/mL
  MIC: 32 µg/mL (≈ 118 µM)
[7]
  MMC/MIC: 1
  MMC: 32 µg/mL
  MIC: 32 µg/mL (≈ 118 µM)
[8]
  MMC/MIC: 1
  MMC: 8 µg/mL
  MIC: 8 µg/mL (≈ 29.6 µM)
[9]
  MMC/MIC: 1
  MMC: 8 µg/mL
  MIC: 8 µg/mL (≈ 29.6 µM)

## O=C1O[C@H]([C@@H](O)CO)C(O)=C1O [Vitamin C, reference compound]
[1]
  DPPH free radical scavenging activity (EC50): 1.81 ± 0.19^h μg/mL

## CC(C)[C@@H](C)C=C[C@@H](C)[C@H]1CC[C@H]2[C@]3(O)C=CC4(O)CC(O)CC[C@]4(C)[C@H]3CC[C@]12C (stereo partly shown) [Compound 3, Ergosta-6,22-diene-3,5,8-triol]
[3]
  MMC/MIC: 2
  MMC: 256 µg/mL
  MIC: 128 µg/mL (≈ 297 µM)
[4]
  MMC: >256 µg/mL
  MIC: 128 µg/mL (≈ 297 µM)
[5]
  MMC: >256 µg/mL
  MIC: 256 µg/mL (≈ 594 µM)
[6]
  MMC: >256 µg/mL
  MIC: > 256 µg/mL
[7]
  MMC: >256 µg/mL
  MIC: > 256 µg/mL
[8]
  MMC: >256 µg/mL
  MIC: 128 µg/mL (≈ 297 µM)
[9]
  MMC/MIC: 2
  MMC: 128 µg/mL
  MIC: 64 µg/mL (≈ 149 µM)

## O=C(O)c1cn(C2CC2)c2cc(N3CCNCC3)c(F)cc2c1=O [ciprofloxacin, Ciprofloxacin, reference compound]
[3]
  MMC/MIC: 1
  MMC: 0.5 µg/mL
  MIC: 0.5 µg/mL (≈ 1.51 µM)
[4]
  MMC/MIC: 1
  MMC: 8 µg/mL
  MIC: 8 µg/mL (≈ 24.1 µM)
[5]
  MMC/MIC: 1
  MMC: 0.5 µg/mL
  MIC: 0.5 µg/mL (≈ 1.51 µM)
[6]
  MMC/MIC: 1
  MMC: 4 µg/mL
  MIC: 4 µg/mL (≈ 12.1 µM)
[7]
  MMC/MIC: 1
  MMC: 4 µg/mL
  MIC: 4 µg/mL (≈ 12.1 µM)
